The values below come from PMC12549899 (Nature Communications, 2025).

For assay [1], the target named is T1, DrOTOP1 mutants targeting the C-domain pocket (Danio rerio, UniProt Q7ZWK8, G346F).
T1 construct: A previously generated codon-optimized full-length DrOTOP1[8]; (UniProt: Q7ZWK8) construct; expressed in transfected cells; host or cells: HEK-293 (CRL-1573, ATCC)
T1 sequence (Q7ZWK8 1-586 G346F): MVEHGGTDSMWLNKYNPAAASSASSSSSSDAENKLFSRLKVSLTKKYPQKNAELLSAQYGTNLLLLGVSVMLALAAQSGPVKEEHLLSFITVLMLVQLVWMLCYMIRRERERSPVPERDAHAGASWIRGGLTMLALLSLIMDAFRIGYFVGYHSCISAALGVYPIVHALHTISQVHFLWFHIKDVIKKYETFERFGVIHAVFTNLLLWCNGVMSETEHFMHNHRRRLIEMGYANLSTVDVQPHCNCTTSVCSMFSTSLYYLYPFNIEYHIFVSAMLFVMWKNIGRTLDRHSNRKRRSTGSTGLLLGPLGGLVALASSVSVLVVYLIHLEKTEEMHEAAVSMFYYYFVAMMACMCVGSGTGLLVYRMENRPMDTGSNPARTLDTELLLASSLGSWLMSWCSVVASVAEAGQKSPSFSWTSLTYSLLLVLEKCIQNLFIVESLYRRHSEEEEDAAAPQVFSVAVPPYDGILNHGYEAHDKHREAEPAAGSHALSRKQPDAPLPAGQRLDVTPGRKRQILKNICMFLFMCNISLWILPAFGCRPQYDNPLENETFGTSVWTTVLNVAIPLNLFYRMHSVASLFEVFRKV
The experiment in a line: Whole-cell patch-clamp, inhibition of acid-evoked currents, other DrOTOP1 C-domain pocket mutants (e.g. G346F, Y422F, L531F, I565W/G346F; Supplementary Fig. 5). To be noted: 100 µM; DrOTOP1 G346F; compared with WT. The format is cell-based, zebrafish (Danio rerio). The text has this:
(§1) To experimentally verify whether C11 and C2.2 bind in the C-domain pocket as predicted, we used their docked poses to guide mutagenesis. The predicted interactions for C11 and C2.2 include π-stacking with F342 and Y422, potential H-bonding with Q542, N568, and R572 (Fig. 2J, K and Supplementary Fig. 5A), and hydrophobic packing. We generated single-residue mutants of these and other residues in DrOTOP1 that were expected to disrupt specific molecular interactions or to introduce a bulky tryptophan residue (W) to produce steric hindrance.
(§2) We next tested a subset of these mutants for sensitivity to C2.2, focusing on those that could occlude the C-domain pocket. […]
(§3) Whole-cell patch-clamp recording was performed as previously described[6],[22],[25]. Recordings were made with an Axopatch 200B amplifier, digitized with a Digidata 1322a 16-bit data acquisition system, acquired with pClamp 8.2 and analyzed with Clampfit 10 (Molecular Devices). […]
(§4) All data are presented as mean ± SEM unless otherwise noted, and each data point represents an independent replicant. Inhibition of compounds was quantified as ((I2peak-I1)/(I2peak))*100, where I1 is the current immediately before wash-off and I2peak is the maximum recovered current (Supplementary Fig. 2). Hill coefficients were determined by the following equation: Y = Bmax*X^h/(Kd^h + X^h). […]

The target in assay [2] is T2, DrOTOP1 mutants targeting the C-domain pocket (Danio rerio, UniProt Q7ZWK8, G346F/I565W).
T2 construct: A previously generated codon-optimized full-length DrOTOP1[8]; (UniProt: Q7ZWK8) construct; expressed in transfected cells; host or cells: HEK-293 (CRL-1573, ATCC)
T2 sequence (Q7ZWK8 1-586 G346F/I565W): T1 sequence (Q7ZWK8 1-586 G346F) with I565W
The assay is described as above. The format is cell-based, zebrafish (Danio rerio). The settings on record: DrOTOP1 I565W / G346F; Supp. Fig 5C.
Source text: as §1, §2, §3, §4

Changes are numbered by the printed parent chain.

Regarding `O=C(/C(=N\O)c1ccccc1)c1ccccc1` [C11, benzil monoxime], the Inhibition of currents entry in assay [1] is “slightly reduced inhibition”. Moreover, the “inhibition of acid-evoked current, mean (Mean of column R)” value in assay [2] amounted to 28.
